# Results: patent US20260109712A1, “RIFAMYCINS FOR NONTUBERCULOUS MYCOBACTERIA” (priority 2022, published 2026)
# Where two headings read alike, the source gives them in different places.
# Experiments:
# Δarr M. abscessus = assay: MIC assay, isogenic arr-deleted strain; type: cell-based, Mycobacterium abscessus; details: for Δarr Mab MIC: arr-deleted strain, 90% growth inhibition; for MICΔorr: Table 10
# In short: (§1)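 Two-fold, ten-point dilutions in 7H9 with 2% DMSO; mid-log culture diluted to OD600=0.1 (1×10^7 CFU/mL). Incubated 3 days at 37 °C, shaking 110 RPM; growth = Day 3 minus Day 0 OD600, expressed as percentage of drug-free growth and plotted against concentration. Two biological replicates.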
# M. abscessus ATCC 19977 = assay: MIC assay in 96-well plate format, wild-type strain; type: cell-based, Mycobacterium abscessus; details: for MICWT: Table 10
# In short: as §1
# M. abscessus Bamboo [1] = assay: Caseum surrogate MBC90 (cMBC90) kill assay; type: cell-based, Mycobacterium abscessus
# Description: (§2) The surrogate matrix was generated as described previously from cultured THP-1 cells (ATCC TIB-202) (mBio, 2023, 14, e0059823). M. abscessus exponential cultures grown in Middlebrook 7H9 broth (Sigma Aldrich) (OD600 0.6-0.9) were spun down and resuspended in water to an OD600 of 7, 0.7, and 0.07. As described for the M. tuberculosis caseum surrogate assay (mnBio, 2023, 14, e0059823), the bacterial suspensions (at three different dilutions resulting in ˜10^9, 10^8, and 10^7 starting CFU/mL, represented by circle, square, and triangle indicators respectively) were added to the caseum surrogate in the ratio 2:1 (vol/wt), briefly homogenized with 1.4-mm zirconia beads, divided evenly into nine 1.5-mL microcentrifuge tubes, and incubated as standing cultures at 37° C. At the indicated time points, tubes were removed and used for CFU enumeration by plating on Middlebrook 7H11 agar (Sigma Aldrich). Separate tubes were used at each time point. To determine the kill curves, cultures with a starting CFU/mL of 10^8 were used (resulting in the middle curve with square indicators). Arrows indicate the time points when drugs were added and the end of the treatment. The experiment was repeated three times independently, yielding similar results. A representative example is shown. Dots and error bars represent means and standard deviations of three technical replicates, respectively.
# FIGS. 29A-29M show the Dose-response kill curves against M. abscessus Bamboo in caseum surrogate. M. abscessus cultures were set up as described in the legend of FIG. 28. Bacterial cell suspensions were added to yield a starting CFU of 10^8/mL (FIG. 28, middle growth curve with square indicators). […] The shaded areas indicate drug concentration windows achieved in caseum in vivo. (Antimicrob. Agents Chemother., 2021, 65, e0050621; Antimicrob. Agents Chemother., 2022, 66, e0221221; PLoS Med., 2019, 16, e1002773; ACS Infect. Dis., 2016, 2, 251-267). The experiment was repeated twice independently, yielding similar results. A representative example is shown. Dots and error bars represent means and standard deviations of three technical replicates, respectively. Horizontal dotted lines indicate the cutoff for 1 log reduction in CFU compared to 10-day drug-free control culture. The cMBC90 values shown in Table 16 are the drug concentrations that reduce CFU by 90% relative to the CFU of drug-free controls at day 10. Since the cultures were in the stationary phase on day 5 when drug treatment started, the CFUs of the drug-free cultures at day 10 were similar to the CFUs of the drug-free cultures at day 5 (FIG. 28).
# as §2, with “(doi: 10.1128/mbio.00598-23).” for “(mBio, 2023, 14, e0059823).”, “(doi: 10.1128/mbio.00598-23),” for “(mnBio, 2023, 14, e0059823),”, “CFU/mL)” for “CFU/mL, represented by circle, square, and triangle indicators respectively)”, “curves for the drugs,” for “curves,”, “used.” for “used (resulting in the middle curve with square indicators). Arrows indicate the time points when drugs were added and the end of the treatment.”, “results.” for “results. A representative example is shown. Dots and error bars represent means and standard deviations of three technical replicates, respectively.”
# The experiment was repeated twice independently, yielding similar results. A representative example is shown. The cMBC90 values shown in Table 16 are the drug concentrations that reduce CFU by 90% relative to the CFU of drug-free controls at day 10. […]
# M. abscessus Bamboo [2] = assay: Broth MBC90 (bMBC90); type: cell-based, Mycobacterium abscessus; details: broth, 5 days
# Description: Broth MIC, broth MBC90 (bMBC90), and caseum surrogate MBC90 ([…]) of clinically used antibiotics and of novel ADP-ribosylation-resistant rifabutin analogs against M. abscessus Bamboo have been evaluated.
# M. abscessus Bamboo [3] = assay: MIC assay, clinical isolate Bamboo; type: cell-based, Mycobacterium abscessus; details: broth, M. abscessus Bamboo; Table 16; read-out: MIC
# M. simiae ATCC 25275 = assay: MIC, anti-mycobacterial profiling; type: cell-based, Mycobacterium simiae; details: mean of two experiments
# M. kansasii ATCC 12478 = assay: MIC, anti-mycobacterial profiling; type: cell-based, Mycobacterium kansasii; details: mean of two experiments
# M. xenopi ATCC 19250 = assay: MIC, anti-mycobacterial profiling; type: cell-based, Mycobacterium xenopi; details: mean of two experiments
# [4] = test system: M. avium subsp. hominisuis MAC109; assay: MIC, anti-mycobacterial profiling; type: cell-based, Mycobacterium avium; details: mean of two experiments
# [5] = test system: M. abscessus subsp. bolletii CCUG 50184T; assay: MIC, anti-mycobacterial profiling; type: cell-based, Mycobacterium abscessus; details: mean of two experiments
# Method: (§3) MIC determination was carried out in 96-well plate format as previously described.^[13-14] 96-well plates were initially set up with 100 μL of 7H9 per well. For each compound, a ten-point two-fold dilution series starting at twice the desired highest concentration was dispensed onto the 96-well plates using a Tecan D300e Digital Dispenser, with the DMSO concentration normalized to 2%. M. abscessus culture grown to mid-log phase (OD600=0.4-0.6) was diluted to OD600=0.1 (1×10^7 CFU/mL). 100 μL of the resulting bacteria suspension was dispensed onto the 96-well plates containing compounds to give a final volume of 200 μL per well with an initial OD600=0.05 (5×10^6 CFU/mL) and final DMSO concentration of 1%. Final compound concentration ranges were typically 50-0.098 μM, 6.25-0.012 μM, 0.006-3.13 μM, or 0.003-1.56 μM. Untreated control wells are included on each plate that contain bacteria suspension and 1% DMSO. Plates were sealed with parafilm, stored in boxes with wet paper towels and incubated at 37° C. with shaking (110 RPM). Plates were incubated for 3 days. To determine growth, OD600 was measured using a Tecan Infinite M200 plate reader on Day 0 and Day 3. Two biological replicates were performed. Clarithromycin was included in each experiment as a positive control.
# (§4) For each well on the 96-well plate, bacterial growth was calculated by subtracting the Day 0 OD600 value from the Day 3 OD600 value. For each compound series, the bacterial growth values for the untreated control wells were averaged to give the average drug-free bacterial growth. For compound-containing wells, percentage growth was calculated by dividing their growth values by the average drug-free bacterial growth for the compound series and multiplying by 100. For each compound series, we plotted percentage growth versus compound concentration. By visual inspection of the dose-response curve, we determined the MIC of a compound as the compound concentrations that would result in 90% growth inhibition.
# (§5) The MIC data was determined using methods disclosed in Example 1.
# [6] = test system: M. abscessus subsp. massiliense CCUG 48898T; assay: MIC, anti-mycobacterial profiling; type: cell-based, Mycobacterium abscessus; details: mean of two experiments
# Method: as §3, §4, §5
# [7] = test system: M. intracellulare ATCC 13950; assay: MIC, anti-mycobacterial profiling; type: cell-based, Mycobacterium intracellulare; details: mean of two experiments
# M. chelonae ATCC 35752 = assay: MIC, anti-mycobacterial profiling; type: cell-based, Mycobacterium chelonae; details: mean of two experiments
# M. chimaera CCUG 50989T = assay: MIC, anti-mycobacterial profiling; type: cell-based, Mycobacterium chimaera; details: mean of two experiments
# M. fortuitum ATCC 6841 = assay: MIC, anti-mycobacterial profiling; type: cell-based, Mycobacterium fortuitum; details: mean of two experiments
# M. szulgai ATCC 35799 = assay: MIC, anti-mycobacterial profiling; type: cell-based, Mycobacterium szulgai; details: mean of two experiments
# Mab ATCC 19977 (Smooth) = assay: Acute Mab mouse infection model (GM-CSF knockout mice); type: in vivo; details: 25 mg/kg every day for 7 days
# Method: In vivo efficacy of compounds UMN22 and UMN34 were evaluated in acute Mab mouse infection model.
# THP-1 = assay: Fold-killing in THP-1; type: cell-based; details: expressed in log-10 scale
# [8] = Plasma protein binding assay (rapid equilibrium dialysis); type: in vitro ADME; details: plasma
# In short: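 Plasma was spiked to 10,000 ng/mL compound and dialysed against PBS by rapid equilibrium dialysis for 4 h at 37° C with shaking at 300 RPM. Plasma and buffer aliquots were matrix-matched 1:1 […] and quantified by LC-MS/MS.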
# Mycobacterium abscessus = assay: MIC against Mycobacterium abscessus (strain not given); type: cell-based
# [9] = Mouse pharmacokinetics studies; type: in vivo, CD-1 mice; details: for ƒAUC/MIC: Table 20
# In short: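 Plasma from K2EDTA-collected blood analysed by LC-MS/MS with multiple-reaction monitoring in electrospray positive mode. Parameters derived by non-compartmental analysis.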
# CYP3A4 = details: human, 10 μM
# Method: The threshold cycle (CT) was measured for each isoform cDNA by real time qRT-PCR. The mRNA level of each isoform was assessed by the relative quantifiation with reference gene (GAPDH) as the normalizer method. The normalized fold induction was calculated by 2^−ΔΔCT method, in which 0.1% DMSO was used as the reference (vehicle control). The induction potential of each test compound was analyzed by comparing its fold induction to a pre-determined cutoff value for each lot of hepatocytes. The hepatocytes lots used in this study were validated using 10 known inducers and 5 known non-inducers for each isozyme. A cutoff value is determined based on the validation study for each hepatocytes lot.
# RFB-R1 M. abscessus = assay: microbe, parasite or virus in culture; type: cell-based, Mycobacterium abscessus; details: Mycobacteroides abscessus, read-out: RFB-R1 M. abscessus MIC
# [10] = against Mycobacterium abscessus, Table 20, read-out: MIC
# [11] = Mycobacteroides abscessus, 72 h, Table 22, read-out: MICMab
smiles,measurement,setting,value
"CO[C@H]1/C=C/O[C@@]2(C)Oc3c(C)c(O)c4c(c3C2=O)C2=NC3(CCN(CC(C)C)CC3)NC2=C(NC(=O)/C(C)=C/C=C/[C@H](C)[C@H](O)[C@@H](C)[C@@H](O)[C@@H](C)[C@H](OC(=O)c2cncnc2)[C@@H]1C)C4=O [5n, 25-O-(5-pyrimidinecarbonyl)-25-O-desacetyrifabutin]",Δarr Mab MIC,Δarr M. abscessus,0.025 µM
same,MIC,"M. abscessus ATCC 19977; M. abscessus ATCC 19977, 90% growth inhibition, read-out: WT Mab MIC",0.018 µM
same,MIC ratio,M. abscessus ATCC 19977; WT MIC/Δarr strain MIC,0.72
same,cMBC90/bMBC90,M. abscessus Bamboo [1]; 5-day assays,5
same,MBC,"M. abscessus Bamboo [1]; caseum surrogate, 5 days, 90% CFU reduction vs drug-free control, read-out: cMBC90",0.65 µM
same,MBC,M. abscessus Bamboo [2],0.13 µM
same,MIC,M. abscessus Bamboo [3],0.03 µM
CO[C@H]1/C=C/O[C@@]2(C)Oc3c(C)c(O)c4c(O)c(c(/C=N/N5CCN(C)CC5)c(O)c4c3C2=O)NC(=O)/C(C)=C\C=C\[C@H](C)[C@H](O)[C@@H](C)[C@@H](O)[C@@H](C)[C@H](OC(C)=O)[C@@H]1C [RIF],MIC,M. simiae ATCC 25275,>100 µM
same,MIC,M. kansasii ATCC 12478,0.3 µM
same,MIC,M. xenopi ATCC 19250,0.04 µM
same,MIC,[4],0.04 µM
same,MIC,"M. abscessus ATCC 19977; M. abscessus subsp. abscessus ATCC 19977, mean of two experiments, read-out: MIC",9.5 µM
same,MIC,[5],28 µM
same,MIC,[6],13 µM
same,MIC,[7],0.06 µM
same,MIC,M. chelonae ATCC 35752,1.4 µM
same,MIC,M. chimaera CCUG 50989T,0.07 µM
same,MIC,M. fortuitum ATCC 6841,6.7 µM
same,MIC,M. szulgai ATCC 35799,0.06 µM
COc1ccccc1NC(=O)O[C@H]1[C@H](C)[C@H](O)[C@H](C)[C@@H](O)[C@@H](C)/C=C/C=C(\C)C(=O)NC2=C3NC4(CCN(CC(C)C)CC4)N=C3c3c(c(O)c(C)c4c3C(=O)[C@@](C)(O/C=C/[C@H](OC)[C@H]1C)O4)C2=O [UMN34],reduction in lung CFU burden vs RFB and untreated groups,Mab ATCC 19977 (Smooth),~2 log10
same,MICΔorr,Δarr M. abscessus,0.014 µM
same,Fold-killing in THP-1,THP-1,4.9
same,MICWT,M. abscessus ATCC 19977,0.015 µM
same,"plasma unbound (ƒu, %)",[8],0.12%
same,plasma unbound fraction,[8],0.12%
same,MIC,Mycobacterium abscessus; [10],0.015 µM
same,ƒAUC/MIC,[9],0.9
CO[C@H]1/C=C/O[C@@]2(C)Oc3c(C)c(O)c4c(c3C2=O)C2=NC3(CCN(CC(C)C)CC3)NC2=C(NC(=O)/C(C)=C/C=C/[C@H](C)[C@H](O)[C@@H](C)[C@@H](O)[C@@H](C)[C@H](OC(=O)c2cncnc2)[C@@H]1C)C4=O [UMN46],MICΔorr,Δarr M. abscessus,0.025 µM
same,Fold-killing in THP-1,THP-1,4.4
same,MICWT,M. abscessus ATCC 19977,0.018 µM
same,"plasma unbound (ƒu, %)","[8]; 4 h, 10000 ng/mL",4.7%
same,CYP3A4 gene fold-induction at 10 μM,CYP3A4,7.9
same,MIC,Mycobacterium abscessus; [11],0.018 µM
same,MIC,"Mycobacterium abscessus; Mycobacteroides abscessus, against Mycobacterium abscessus, Table 19, read-out: MIC",0.018 µM
same,MIC,Mycobacterium abscessus; [10],0.018 µM
same,ƒAUC/MIC,[9],87.8
same,F,"[9]; female, CD-1, mouse, in vivo",86%
same,Vd,"[9]; female, CD-1, mouse, in vivo",2.1 L/kg
same,clearance,"[9]; female, CD-1, mouse, in vivo",4 mL/min/kg
"CO[C@H]1/C=C/O[C@@]2(C)Oc3c(C)c(O)c4c(O)c(c(/C=N/N5CCN(C)CC5)c(O)c4c3C2=O)NC(=O)/C(C)=C\C=C\[C@H](C)[C@H](O)[C@@H](C)[C@@H](O)[C@@H](C)[C@H](OC(C)=O)[C@@H]1C [rifampicin, reference compound]",MIC,RFB-R1 M. abscessus,> 100 µM
same,Δarr Mab MIC,Δarr M. abscessus,0.26 µM
same,MIC,"M. abscessus ATCC 19977; Mycobacteroides abscessus, ATCC19977, read-out: WT Mab MIC",5.3 µM
same,MIC,Mycobacterium abscessus; [11],5.3 µM
